Experimental data: patent US7241757B2, “Amidino derivatives and their use as thrombin inhibitors” (AstraZeneca AB, priority 2000, dated 2007)
pIC50: −log10 of the molar value.

Key:
[1] = rat, in vivo
Text: Determination of Thrombin Time Ex Vivo
The inhibition of thrombin after oral or parenteral administration of the compounds of formula I, dissolved in ethanol:Solutol™:water (5:5:90), were examined in conscious rats which, one or two days prior to the experiment, were equipped with a catheter for blood sampling from the carotid artery. On the experimental day blood samples were withdrawn at fixed times after the administration of the compound into plastic tubes containing 1 part sodium citrate solution (0.13 mol per L) and 9 parts of blood. The tubes were centrifuged to obtain platelet poor plasma. The plasma was used for determination of thrombin time as described below.
The citrated rat plasma, 100 μL, was diluted with a saline solution, 0.9%, 100 μL, and plasma coagulation was started by the addition of human thrombin (T 6769, Sigma Chem Co, USA) in a buffer solution, pH 7.4, 100 μL. The clotting time was measured in an automatic device (KC 10, Amelumg, Germany). […]
Based on the estimated plasma concentrations of the active thrombin inhibitor (which assumes that thrombin time prolongation is caused by the aforementioned compound) in the rat, the area under the curve after oral and/or parenteral administration of the corresponding prodrug compound of formula I was calculated (AUCpd) using the trapezoidal rule and extrapolation of data to infinity. […]

Human thrombin = biological target: T1, Human thrombin (Homo sapiens, UniProt P00734); assay: Test A: Determination of Thrombin Clotting Time (TT); assay type: biochemical; conditions: concentration of inhibitor that doubles the thrombin clotting time for human plasma
T1 construct: conversion of the proenzyme prothrombin to the active enzyme thrombin; purchased Sigma Chem. Co T 6769
Method: Determination of Thrombin Clotting Time (TT)
The inhibitor solution (25 μL) was incubated with plasma (25 μL) for three minutes. Human thrombin (T 6769; Sigma Chem. Co) in buffer solution, pH 7.4 (25 μL) was then added and the clotting time measured in an automatic device (KC 10; Amelung).
The clotting time in seconds was plotted against the inhibitor concentration, and the IC50TT was determined by interpolation.
IC50TT is the concentration of inhibitor in the test that doubles the thrombin clotting time for human plasma.

Row | SMILES | oral and/or parenteral bioavailability as the corresponding active inhibitor (free amidine) [1] | pIC50 (Human thrombin)
1 | CON=C(N)c1ccc(CNC(=O)[C@@H]2CCN2C(=O)C2(O)CCOc3c(OC(F)(F)F)cc(Cl)cc32)cc1 (stereo partly shown) [Example 7, 4-Hydroxy-6-chloro-8-trifluoromethoxychroman-4-yl-C(O)-Aze-Pab(OMe)] | exhibit oral and/or parenteral bioavailability | 
2 | N=C(N)c1ccc(CNC(=O)C2CCN2C(=O)C2(O)CCOc3c(OC(F)(F)F)cc(Cl)cc32)cc1 (stereo not shown) [Example 6, 4-Hydroxy-6-chloro-8-trifluoromethoxychroman-4-yl-C(O)-Aze-Pab] |  | > 7.00
3 | N=C(N)c1ccc(CNC(=O)C2CCN2C(=O)C2(O)CCOc3c(OC(F)F)cc(Cl)cc32)cc1 (single isomer, unassigned) [Example 8, (S)- or (R)-4-Hydroxy-6-chloro-8-difluoromethoxychroman-4-yl-C(O)-Aze-Pab×HOAc] |  | > 7.00
4 | CON=C(N)c1ccc(CNC(=O)[C@@H]2CCN2C(=O)C2(O)CCOc3c(OC(F)F)cc(Cl)cc32)cc1 (single isomer, unassigned) [Example 9, (S)- or (R)-4-Hydroxy-6-chloro-8-difluoromethoxychroman-4-yl-C(O)-Aze-Pab(OMe)] | exhibit oral and/or parenteral bioavailability | 
